Experimental data as given in publication PMC7242257, “Impact of Magnesium Stearate Presence and Variability on Drug Apparent Solubility Based on Drug Physicochemical Properties” (The AAPS Journal, 2020).

Assays:
[1] = parameters: method as in earlier work; settings: based on BCS classification (20); ref (24), (26), (28), (29), (31), (34), (35), (38); cited from earlier work
[2] = Relative effect of MgSt on drug apparent solubility (shake-flask, physical mixtures); settings: phosphate buffer pH 6.8
Experimental: Drug solubility studies in the absence and presence of excipient were performed in triplicate using the shake-flask method [41]. Drug excess amount and 2% w/w or 5% w/w of each excipient were weighed and placed in centrifuge tubes. […] The physical mixtures were vortexed for 3 min. Five millilitres of each medium was added in the tubes and the samples were placed in a shaking water bath (37°C, 200 strokes per minute (spm)). […] Filter adsorption studies were performed prior in triplicate for each drug. […] Filtered samples were further diluted (if needed) with the corresponding medium and analysed by HPLC (Supplementary Table I). […] Drug quantification was made based on calibration curves. Standards were formulated from concentrated stock solutions consisting of drug dissolved in MeOH. As changes in the pH of solutions by the presence of the dissolved drug [34] or MgSt [43, 44] may affect drug solubility, the pH of samples after the completion of each experiment was measured. Drug solubility was calculated based on the sample drug concentration measured.
The relative effect (RE) of each excipient on drug apparent solubility was calculated based on Eq.

SMILES | Solubility (BCS-based class) [1] | Relative effect (RE) on drug solubility at 24 h ([2]; 2% Ligamed MF-2-V) [%] | Relative effect (RE) on drug solubility at 24 h ([2]; 2% Ligamed MF-3-V) [%]
OCCN(CCO)c1nc(N2CCCCC2)c2nc(N(CCO)CCO)nc(N3CCCCC3)c2n1 [DPL, Dipyridamole] | Low (34) | – | –
NC(=O)N1c2ccccc2C=Cc2ccccc21 [CBZ, Carbamazepine] | Low (31) | 29 | 27
CCC(C)n1ncn(-c2ccc(N3CCN(c4ccc(OCC5COC(Cn6cncn6)(c6ccc(Cl)cc6Cl)O5)cc4)CC3)cc2)c1=O (centres unmarked) [ITZ, Itraconazole] | Low (38) | – | –
